Laboratory results as given in PMC8509669 (2021).

Columns and labels:
Test in all cases: ThT fluorescence light-up
[1] = test system: FenA4-ThT (DNA, aptamer) ACGACCGCAGGTTGTCTGAGCCGACAGGTTGCATGTCGT; settings: 10 mM NaCl; 10 mM Tris-HCl pH 7.0, 30 °C; 1 µM aptamer
[2] = test system: FenA5-ThT (DNA, aptamer) ACGACCGCAGGGCGTGAGAGCCGGAACGGTGCATCGTCGT; settings: 10 mM NaCl; 10 mM Tris-HCl pH 7.0, 30 °C; 1 µM aptamer
[3] = test system: FenA1-ThT (DNA, aptamer) ACGACCACAGGGAGTAAGAGGCCGCCAGATTGTAAGTCGT; settings: 10 mM NaCl; 10 mM Tris-HCl pH 7.0, 30 °C; 1 µM aptamer
[4] = test system: FenA3-ThT (DNA, aptamer) CCGCAGGTCAGGTTGAGAGGATCCCGATTGCGG; settings: 10 mM NaCl; 10 mM Tris-HCl pH 7.0, 30 °C; 1 µM aptamer
[5] = test system: FenA2-ThT (DNA, aptamer) ACGACGGGCCGAGTAGTCTCCACGATTGATCGGAAGTCGT; settings: 10 mM NaCl; 10 mM Tris-HCl pH 7.0, 30 °C; 1 µM aptamer; peak signal at 1:8 sensor:ThT

binding [1]: weak
binding [2]: weak
binding [3]: weak
binding [4]: weak
binding [5]: yes
Compound: Cc1ccc2c(c1)sc(-c1ccc(N(C)C)cc1)[n+]2C
